# Key:
# [1] = test system: Aspergillus fumigatus NCPF7099; assay: Broth microdilution assay (modified EUCAST); format: cell-based; settings: Aspergillus fumigatus, NCPF7099, n = 3, read-out: MIC75 against Aspergillus fumigatus isolate NCPF7099
# Method: (§1) This assay was conducted using a modified method published by EUCAST (Rodriguez-Tudela et al., 2008). Spores of aspergillus fumigatus (NCPF2010, NCPF7010 (Methionine 220 mutation), NCPF7099 (Glycine G54 mutation) from Public Health England, Wiltshire; TR34/L98H mutants from St Louis Hospital, Paris, France) were cultured in Sabouraud dextrose agar for 3 days. A stock spore suspension was prepared from a Sabouraud dextrose agar culture by washing with PBS-tween (10 mL; PBS containing 0.05% Tween-20, 100 U/mL Penicillin and 100 U/mL Streptomycin). The spore count was assessed using a Neubauer haemocytometer and then adjusted to 10^6 spores/mL with PBS. A working suspension of spores (2 × 10^5 spores/mL) was prepared in filter sterilised, BSA MOPS RPMI-1640 (50 mL; RPMI-1640 containing 2 mM L-glutamine, 0.5% BSA, 2% glucose, 0.165 M MOPS, buffered to pH 7 with NaOH). For the assay, BSA MOPS RPMI-1640 (50 µL/well) was added throughout the 384-well plate (Catalogue number 353962, BD Falcon, Oxford, UK) first. Test compounds (0.5 µL DMSO solution) were then added in quadruplicate using an Integra VIAFLO 96 (Integra, Zizers, Switzerland), and mixed well using a plate mixer. Subsequently 50 µL of the working spore suspension prepared above was added to all wells except non-spore control wells. For non-spore control wells, BSA MOPS-RPMI solution (50 µL/well) was added instead. The plate was covered with a plastic lid, and incubated (35° C. with ambient air) for 48 hr. The OD of each well at 530 nm was determined using a multi-scanner (Clariostar: BMG, Buckinghamshire, UK). The percentage inhibition for each well was calculated and the MIC50, MIC75 and MIC90 values were calculated from the concentration-response curve generated for each test compound.
# [2] = test system: Aspergillus fumigatus L98H (TR34/L98H); assay: Broth microdilution assay (modified EUCAST); format: cell-based; settings: Aspergillus fumigatus, read-out: MIC75 against Aspergillus fumigatus isolate L98H
# Method: as §1
# [3] = test system: Aspergillus fumigatus NCPF2010; assay: Broth microdilution assay (modified EUCAST); format: cell-based; settings: Aspergillus fumigatus, NCPF2010, read-out: MIC75 against Aspergillus fumigatus isolate NCPF2010
# Method: as §1
# [4] = Cell viability: resazurin assay; format: cell-based, human; settings: human, BEAS2B cells; n = 3-5
# Method: BEAS2B cells were seeded in 384-well plates (100 µL; 3000 / well /; BD Falcon, Catalogue No 353962) in RPMI-LHC8 (RPMI-1640 and LHC8 media combined in equal proportions) one day before experimentation. For cell-free control wells, RPMI-LHC8 (100 µL) was added. Test compounds (0.5 µL of a DMSO solution) were added to give a final DMSO concentration of 0.5% using an Integra VIAFLO 96 (Integra, Zizers, Switzerland). BEAS2B cells were incubated with each test compound for 1 day (37° C. / 5% CO2 in RPMI-LHC8). After addition of resazurin stock solution (5 µL, 0.04%) the plates were incubated for a further 4 hr (37° C. / 5% CO2). The fluorescence of each well at 545 nm (excitation) and 590 nm (emission) was determined using a multi-scanner (Clariostar: BMG Labtech). The percentage loss of cell viability was calculated for each well relative to vehicle (0.5% DMSO) treatment. Where appropriate, a CC50 value was calculated from the concentration-response curve generated from the concentration-response curve for each test compound.
# [5] = test system: Aspergillus fumigatus NCPF7100; assay: Broth microdilution assay (modified EUCAST); format: cell-based; settings: Aspergillus fumigatus, NCPF7100, read-out: MIC75 against Aspergillus fumigatus isolate NCPF7100
# [6] = test system: aspergillus fumigatus infection of BEAS2B cells; assay: Aspergillus fumigatus infection of bronchial epithelial cells (GM in supernatant); format: cell-based; settings: bronchial epithelial cells infected with Aspergillus fumigatus; read-out: MIC50 Infection of BEAS2B cells
# Method: BEAS2B cells were seeded in 96-well plates (100 µL; 30,000 cells / well; Catalogue No 3596, Sigma Aldrich, Dorset, UK) in 10% FBS RPMI-1640 and were then incubated (37° C., 5% CO2) for one day before experimentation. Test compounds (0.5 µL DMSO solution) or vehicle (DMSO) were added to each well to give a final DMSO concentration of 0.5%. BEAS2B cells were incubated with test compounds for 1 hr (35° C., 5% CO2) before infection with aspergillus fumigatus (20 µL; Public Health England) conidia suspension (0.5×10^5 /ml in 10% FBS RPMI-1640). The plate was incubated for 24 hr (35° C., 5% CO2). Supernatant (50 µL) was collected and transferred to a PCR plate (Catalogue No L1402-9700, Starlab, Milton Keynes, UK), which was frozen (-20° C.) until use. After thawing, supernatant (5 µL) was diluted 1:20 by adding R7-PBS solution (95 µL; 1:4 R7 to PBS; Bio-Rad Laboratories, Redmond, WA, USA). GM levels in these samples (50 µL) were measured using Platelia GM-EIA kits (Bio-Rad Laboratories, Redmond, WA, USA). The percentage inhibition for each well was calculated and the IC50 value was calculated from the concentration-response curve generated for each test compound.
# [7] = test system: aspergillus fumigatus (ATCC 13073 [strain: NIH 5233]); assay: In vivo anti-fungal activity, prophylactic and therapeutic treatment of infected immunocompromised neutropenic mice; parameters: species or system A/J mice; settings: prophylactic treatment (days 0, 1, 2 and 3); 0.4 mg/mL
SMILES,MIC [1] [µM],MIC [2] [µM],MIC [3] [µM],CC50 at 1 day [4] [µM],MIC [5] [µM],MIC50 [6] [µM],"% Inhibition versus Infected Controls, GM in BALF [7] [%]","% Inhibition versus Infected Controls, GM in serum [7] [%]","% Inhibition versus Infected Controls, Lung Fungal Load [7] [%]"
"N#Cc1ccc(NC(=O)c2ccc(N3CCN(c4ccc(OCC5CO[C@@](Cn6cncn6)(c6ccc(F)cc6F)C5)c(Cl)c4)CC3)cc2)cc1 (stereo in doubt) [Example 10, 4-(4-(4-(((3R,5R)-5-((1H-1,2,4-triazol-1-yl)methyl)-5-(2,4-difluorophenyl)tetrahydrofuran-3-yl)methoxy)-3-chlorophenyl)piperazin-1-yl)-N-(4-cyanophenyl)benzamide]",0.00996,0.0812,0.022,> 14.1,0.0295,0.0145,,,
"O=C(Nc1ccc(F)cc1)c1ccc(N2CCN(c3ccc(OCC4CO[C@@](Cn5cncn5)(c5ccc(F)cc5F)C4)c(F)c3)CC2)cc1 (stereo in doubt) [Example 17, 4-(4-(4-(((3R, 5R)-5-((1H-1,2,4-triazol-1-yl)methyl)-5-(2,4-difluorophenyl)tetrahydrofuran-3-yl)methoxy)-3-fluorophenyl)piperazin-1-yl)-N-(4-fluorophenyl)benzamide]",0.0185,0.409,0.00215,> 14.6,0.0133,,45,72,83
"O=C(Nc1ccc(F)cc1)c1ccc(N2CCN(c3ccc(OCC4CO[C@@](Cn5cncn5)(c5ccc(F)cc5F)C4)c(Cl)c3)CC2)cc1 (stereo in doubt) [Example 18, 4-(4-(4-(((3R,5R)-5-((1H-1,2,4-triazol-1-yl)methyl)-5-(2,4-difluorophenyl)tetrahydrofuran-3-yl)methoxy)-3-chlorophenyl)piperazin-1-yl)-N-(4-fluorophenyl)benzamide]",0.011,0.0733,0.0222,> 14.2,0.0471,0.0866,,,
"NS(=O)(=O)c1ccc(NC(=O)c2ccc(N3CCN(c4ccc(OCC5CO[C@@](Cn6cncn6)(c6ccc(F)cc6F)C5)c(F)c4)CC3)cc2)cc1 (stereo in doubt) [Example 22, 4-(4-(4-(((3R,5R)-5-((1H-1,2,4-triazol-1-yl)methyl)-5-(2,4-difluorophenyl)tetrahydrofuran-3-yl)methoxy)-3-fluorophenyl)piperazin-1-yl)-N-(4-sulfamoylphenyl)benzamide]",0.0164,> 1.34,0.0113,> 13.4,0.022,0.00477,,,
"N#Cc1ccc(NC(=O)c2ccc(N3CCN(c4ccc(OCC5CO[C@@](Cn6cncn6)(c6ccc(F)cc6F)C5)c(F)c4)CC3)cc2)c(F)c1 (stereo in doubt) [Example 24, 4-(4-(4-(((3R, 5R)-5-((1H-1,2,4-triazol-1-yl)methyl)-5-(2,4-difluorophenyl)tetrahydrofuran-3-yl)methoxy)3-fluorophenyl)piperazin-1-yl)-N-(4-cyano-2-fluorophenyl)benzamide]",0.0205,0.191,0.0099,> 14.1,0.014,,,,
"O=C(Nc1ccc(F)cn1)c1ccc(N2CCN(c3ccc(OCC4CO[C@@](Cn5cncn5)(c5ccc(F)cc5F)C4)c(F)c3)CC2)cc1 (stereo in doubt) [Example 40, 4-(4-(4-(((3R, 5R)-5-((1H-1,2,4-triazol-1-yl)methyl)-5-(2,4-difluorophenyl)tetrahydrofuran-3-yl)methoxy)-3-fluorophenyl)piperazin-1-yl)-N-(5-fluoropyridin-2-yl)benzamide]",0.024,0.0731,0.0125,> 14.5,0.0146,0.00687,,,
"Cc1cc(N2CCN(c3ccc(C(=O)Nc4ccc(F)cc4)cc3)CC2)c(C)cc1OC[C@@H]1CO[C@@](Cn2cncn2)(c2ccc(F)cc2F)C1 [Example 5, 4-(4-(4-(((3R,5R)-5-((1H-1,2,4-Triazol-1-yl)Methyl)-5-(2,4-Difluorophenyl) Tetrahydrofuran-3-yl)Methoxy)-2,5-Dimethylphenyl)Piperazin-1-yl)-N-(4-Fluorophenyl) Benzamide]",0.157,0.162,0.0133,> 14.4,0.0966,0.123,,,
"Cc1cc(N2CCN(c3ccc(C(=O)Nc4ccc(F)cn4)cc3)CC2)ccc1OC[C@@H]1CO[C@@](Cn2cncn2)(c2ccc(F)cc2F)C1 [Example 6, 4-(4-(4-(((3R,5R)-5-((1H-1,2,4-Triazol-1-yl)Methyl)-5-(2,4-Difluorophenyl)Tetra Hydrofuran-3-yl)Methoxy)-3-Methylphenyl)Piperazin-1-yl)-N-(5-Fluoropyridin-2-yl) Benzamide]",0.0212,0.131,0.0125,> 14.6,0.0214,0.0239,,,
"Cc1cc(N2CCN(c3ccc(C(=O)Nc4ccc(F)c(F)c4)cc3)CC2)ccc1OC[C@@H]1CO[C@@](Cn2cncn2)(c2ccc(F)cc2F)C1 [Example 27, 4-(4-(4-(((3R, 5R)-5-((1H-1,2,4-triazol-1-yl)methyl)-5-(2,4-difluorophenyl)tetrahydrofuran-3-yl)methoxy)-3-methylphenyl)piperazin-1-yl)-N-(3,4-difluorophenyl)benzamide]",0.0127,0.136,0.0193,> 14.3,0.0223,,,,
"Cc1cc(N2CCN(c3ccc(C(=O)Nc4ccc(OC(F)(F)F)cn4)cc3)CC2)ccc1OC[C@@H]1CO[C@@](Cn2cncn2)(c2ccc(F)cc2F)C1 [Example 39, 4-(4-(4-(((3R,5R)-5-((1H-1,2,4-triazol-1-yl)methyl)-5-(2,4-difluorophenyl)tetrahydrofuran-3-yl)methoxy)-3-methylphenyl)piperazin-1-yl)-N-(5-(trifluoromethoxy)pyridin-2-yl)benzamide]",,0.0659,0.052,> 13.3,,,,,
"Cc1cc(N2CCN(c3ccc(C(=O)Nc4ccc(Cl)cn4)cc3)CC2)ccc1OC[C@@H]1CO[C@@](Cn2cncn2)(c2ccc(F)cc2F)C1 [Example 41, 4-(4-(4-(((3R, 5R)-5-((1H-1,2,4-triazol-1-yl)methyl)-5-(2,4-difluorophenyl)tetrahydrofuran-3-yl)methoxy)-3-methylphenyl)piperazin-1-yl)-N-(5-chloropyridin-2-yl)benzamide]",,0.261,0.0576,> 14.3,,,,,

# — patent publication US20230295133A1, “PROCESS FOR PREPARING A COMPOUND USEFUL TO TREAT MYCOSES” (PULMOCIDE LIMITED, priority 2014, published 2023)
